Drawing on patent US7053070B2, “Pyrido[2,3-d]pyrimidine-2,7-diamine kinase inhibitors” (Warner-Lambert Company, priority 2000, dated 2006), this text covers IC50, inhibition and melting point for 14 molecules.

The target of one data set is cdk4/cyclinD (Homo sapiens, UniProt P11802). The data set can be described thus: Cyclin Dependent Kinase 4 (cdk-4) Assay, 32P incorporation, filter plate. It is filed as biochemical. The settings on record: retinoblastoma substrate, 25 μM ATP, 25° C., 15 minutes; read-out: Inhibition of Cdks: IC50 Cdk4D. As for the experimental part:
Cyclin Dependent Kinase 4 (cdk-4) Assay
Enzyme assays for IC50 determinations and kinetic evaluation are performed in 96-well filter plates (Millipore MADVN6550). The total volume is 0.1 mL containing a final concentration of 20 mM TRIS (tris[hydroxymethyl]aminomethane), at pH 7.4, 50 mM NaCl, 1 mM dithiothreitol, 10 mM MgCl2, 25 μM ATP containing 0.25 μCi of [^32P]ATP, 20 ng of cdk4, 1 μg of retinoblastoma, and appropriate dilutions of a compound of the present invention. All components except the ATP are added to the wells, and the plate is placed on a plate mixer for 2 minutes. The reaction is started by adding [^32P]ATP, and the plate is incubated at 25° C. for 15 minutes. The reaction is terminated by addition of 0.1 mL of 20% trichloroacetic acid (TCA). The plate is kept at 4° C. for at least 1 hour to allow the substrate to precipitate. The wells are then washed 5 times with 0.2 mL of 10% TCA and ^32P incorporation is determined with a beta plate counter (Wallac Inc., Gaithersburg, Md.).

Data set [1] deals with T1, FGF-1 (flg) receptor tyrosine kinase (FGFr) (Homo sapiens, UniProt P11362).
T1 construct: amplify a fragment of DNA that codes for the intracellular tyrosine kinase domain; made in house; host or cells: SF9 insect cells (baculovirus); crude cell lysate used
The data set can be described thus: FGF Receptor Tyrosine Kinase Assay. It is filed as biochemical. The conditions noted are these: at 50 μM compound; glutamate-tyrosine co-polymer substrate; read-out: Inhibition of Tyrosine Kinases: % Inhibition at 50 μM FGFr. An excerpt:
PDGF and FGF Receptor Tyrosine Kinase Assays
Full-length cDNAs for the mouse PDGF-β and human FGF-1 (flg) receptor tyrosine kinases are obtained from J. Escobedo and prepared as described in J. Biol. Chem. 1991; 262:1482-1487. PCR primers are designed to amplify a fragment of DNA that codes for the intracellular tyrosine kinase domain. The fragment is inserted into a baculovirus vector, cotransfected with AcMNPV DNA, and the recombinant virus isolated. SF9 insect cells are infected with the virus to overexpress the protein, and the cell lysate is used for the assay. Assays are performed in 96-well plates (100 μL/incubation/well), and conditions are optimized to measure the incorporation of ^32P from γ^32P-ATP into a glutamate-tyrosine co-polymer substrate. Briefly, to each well is added 82.5 μL of incubation buffer containing 25 mM Hepes (pH 7.0), 150 mM NaCl, 0.1% Triton X-100, 0.2 mM PMSF, 0.2 mM Na3VO4, 10 mM MnCl2, and 750 μg/mL of Poly (4:1) glutamate-tyrosine followed by 2.5 μL of inhibitor and 5 μL of enzyme lysate (7.5 μg/μL FGF-TK or 6.0 μg/μL PDGF-TK) to initiate the reaction. Following a 10-minute incubation at 25° C. […] of γ^32P-ATP (0.4 μCi plus 50 μM ATP) is added to each well, and samples are incubated for an additional 10 minutes at 25° C. The reaction is terminated by the addition of 100 μL of 30% trichloroacetic acid (TCA) containing 20 mM sodium pyrophosphate and precipitation of material onto glass fiber mats (Wallac). Filters are washed 3 times with 15% TCA containing 100 mM sodium pyrophosphate, and the radioactivity retained on the filters counted in a Wallac 1250 Betaplate reader. Nonspecific activity is defined as radioactivity retained on the filters following incubation of samples with buffer alone (no enzyme). Specific enzymatic activity (enzyme plus buffer) is defined as total activity minus nonspecific activity.

A further data set addresses cdk1/cyclinB (Homo sapiens, UniProt P06493). The data set can be described thus: Cyclin dependent kinase 1 assay (cdk1/cyclinB), 32P incorporation, filter plate. The format is biochemical. The conditions noted are these: retinoblastoma substrate, 12 mM ATP, 25° C., 15 minutes; read-out: Inhibition of Cdks: IC50 Cdk1/B. As to the method: (§1) Cyclin Dependent Kinase 1 and 2 Assays (cdk1/cyclinB, cdk2/cyclinA, cdk2/cyclinE)
(§2) Enzyme assays for IC50 determinations and kinetic evaluation are performed in a 96-well filter plate (Millipore MADVN6550) in a total volume of 0.1 mL of 20 mM TRIS (tris[hydroxymethyl]aminomethane), at pH 7.4, 50 mM NaCl, 1 mM dithiothreitol, 10 mM MgCl2, […] containing 0.25 μCi of [^32P]ATP, 20 ng of enzyme (either cdk1/B, cdk2/A, or cdk2E), 1 μg retinoblastoma and appropriate dilutions of the particular invention compound. All components except the ATP are added to the wells, and the plate is placed on a plate mixer for 2 minutes. The reaction is begun by addition of [^32P]ATP, and the plate is incubated at 25° C. for 15 minutes. The reaction is terminated by addition of 0.1 mL of 20% TCA. The plate is kept at 4° C. for at least 1 hour to allow the substrate to precipitate. The wells are then washed 5 times with 0.2 mL of 10% TCA and ^32P incorporation determined with a beta plate counter (Wallac Inc., Gaithersburg, Md.).

The next data set concerns the target cdk2/cyclinA (Homo sapiens, UniProt P24941). The data set is described as follows: Cyclin dependent kinase 2 assay (cdk2/cyclinA), 32P incorporation, filter plate. The conditions noted are these: retinoblastoma substrate, 12 mM ATP, 25° C., 15 minutes; read-out: Inhibition of Cdks: IC50 Cdk2/A. It is filed as biochemical. As for the experimental part:
as §1, §2

The next data set addresses cdk2/cyclinE (Homo sapiens, UniProt P24941). The data set is described as follows: Cyclin dependent kinase 2 assay (cdk2/cyclinE), 32P incorporation, filter plate. The conditions noted are these: retinoblastoma substrate, 12 mM ATP, 25° C., 15 minutes; read-out: Inhibition of Cdks: IC50 Cdk2/E. It is filed as biochemical. As to the method:
as §1, §2

Sequence of cdk4/cyclinD (P11802 whole entry, species assumed): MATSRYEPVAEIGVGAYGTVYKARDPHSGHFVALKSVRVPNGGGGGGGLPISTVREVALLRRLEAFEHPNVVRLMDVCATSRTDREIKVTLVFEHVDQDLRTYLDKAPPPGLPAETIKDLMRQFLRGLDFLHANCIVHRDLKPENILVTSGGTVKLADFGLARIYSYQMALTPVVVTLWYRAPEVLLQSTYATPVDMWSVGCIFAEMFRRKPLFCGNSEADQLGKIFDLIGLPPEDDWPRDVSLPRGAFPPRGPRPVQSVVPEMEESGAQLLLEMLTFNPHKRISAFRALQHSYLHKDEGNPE
Sequence of cdk4/cyclinD (P24385 whole entry partner, species assumed): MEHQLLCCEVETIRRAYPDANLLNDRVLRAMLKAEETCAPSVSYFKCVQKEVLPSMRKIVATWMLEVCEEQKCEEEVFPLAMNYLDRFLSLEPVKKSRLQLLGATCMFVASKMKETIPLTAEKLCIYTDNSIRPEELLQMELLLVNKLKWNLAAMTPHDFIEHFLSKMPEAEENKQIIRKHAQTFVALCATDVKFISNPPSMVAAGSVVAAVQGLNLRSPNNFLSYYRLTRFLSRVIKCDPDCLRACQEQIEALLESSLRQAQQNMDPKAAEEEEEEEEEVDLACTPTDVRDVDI
Sequence of cdk1/cyclinB (P06493 whole entry, species assumed): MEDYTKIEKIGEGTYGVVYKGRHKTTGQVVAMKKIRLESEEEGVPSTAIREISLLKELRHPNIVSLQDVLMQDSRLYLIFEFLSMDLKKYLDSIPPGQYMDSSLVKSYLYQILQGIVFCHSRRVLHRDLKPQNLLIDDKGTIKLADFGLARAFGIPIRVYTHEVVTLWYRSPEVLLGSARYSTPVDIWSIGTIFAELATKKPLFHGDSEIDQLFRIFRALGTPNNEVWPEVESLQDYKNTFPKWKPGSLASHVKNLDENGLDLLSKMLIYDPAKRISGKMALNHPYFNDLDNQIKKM
Sequence of cdk1/cyclinB (P14635 whole entry partner, species assumed): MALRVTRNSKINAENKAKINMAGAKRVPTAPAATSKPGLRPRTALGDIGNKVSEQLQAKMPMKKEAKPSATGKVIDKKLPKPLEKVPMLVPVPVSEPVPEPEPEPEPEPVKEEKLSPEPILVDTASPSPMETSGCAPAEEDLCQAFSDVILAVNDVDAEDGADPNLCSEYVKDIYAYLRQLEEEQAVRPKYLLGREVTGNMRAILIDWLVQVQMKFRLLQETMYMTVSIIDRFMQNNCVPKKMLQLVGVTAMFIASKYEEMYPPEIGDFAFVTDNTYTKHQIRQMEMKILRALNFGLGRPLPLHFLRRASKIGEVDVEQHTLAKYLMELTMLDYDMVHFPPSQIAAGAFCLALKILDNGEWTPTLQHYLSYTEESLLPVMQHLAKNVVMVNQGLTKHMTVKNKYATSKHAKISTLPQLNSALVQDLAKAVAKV
T1 sequence (P11362 478-767 limits assumed): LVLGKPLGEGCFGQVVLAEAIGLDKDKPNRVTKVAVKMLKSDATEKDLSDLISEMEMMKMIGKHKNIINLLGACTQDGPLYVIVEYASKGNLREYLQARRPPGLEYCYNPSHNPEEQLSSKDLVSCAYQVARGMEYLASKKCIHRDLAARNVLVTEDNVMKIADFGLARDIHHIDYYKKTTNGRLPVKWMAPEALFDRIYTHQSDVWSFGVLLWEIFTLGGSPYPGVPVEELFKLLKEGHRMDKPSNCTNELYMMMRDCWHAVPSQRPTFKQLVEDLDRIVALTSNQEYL

What is called inhibition is the drop in the measured response relative to a control, in per cent. `O=C(Nc1ccc2cnc(Nc3ccc(N4CCNCC4)cc3)nc2n1)NC1CCCCC1` [Compound 9, 1-Cyclohexyl-3-[2-(4-piperazin-1-yl-phenylamino)-pyrido[2,3-d]pyrimidin-7-yl]-urea]: the IC50 at cdk4/cyclinD was determined as 5 nM; at cdk1/cyclinB it was 27 nM; at cdk2/cyclinA, 10 nM; at cdk2/cyclinE it was 20 nM. Moreover, the inhibition at 50 µM in data set [1] came out at 89.8%.

The term melting point denotes the temperature of the solid-liquid transition. As for `Cc1cc(NC(=O)NC(C)(C)C)nc2nc(Nc3ccc(N4CCNCC4)cc3)ncc12` [Compound 4, 1-tert-Butyl-3-[5-methyl-2-(4-piperazin-1-yl-phenylamino)-pyrido[2,3-d]pyrimidin-7-yl]-urea], the melting point is 230 to 232 °C (dec.). In addition, at cdk4/cyclinD, the IC50 is 1500 nM. In addition, on cdk1/cyclinB, the IC50 was greater than 5000 nM. At cdk2/cyclinA, the IC50 was greater than 5000 nM. Moreover, the IC50 at cdk2/cyclinE is greater than 5000 nM.

`CCNC(=O)Nc1cc(C)c2cnc(Nc3ccc(N4CCNCC4)cc3)nc2n1` [Compound 28, 1-Ethyl-3-[5-methyl-2-(4-piperazin-1-yl-phenylamino)-pyrido[2,3-d]pyrimidin-7-yl]-urea] displayed a melting point of 220 to 222 °C. The IC50 at cdk4/cyclinD was greater than 5000 nM. The IC50 at cdk1/cyclinB is greater than 5000 nM. The IC50 at cdk2/cyclinA was greater than 5000 nM. The IC50 at cdk2/cyclinE was greater than 5000 nM.

On to `Cc1cc(NC(=O)NC2CCCCC2)nc2nc(Nc3ccc(N4CCNCC4)cc3)ncc12` [Compound 12, 1-Cyclohexyl-3-[5-methyl-2-(4-piperazin-1-yl-phenylamino)-pyrido[2,3-d]pyrimidin-7-yl]-urea], for which the melting point is 238 °C (dec.). For the same molecule, the IC50 at cdk4/cyclinD is 2100 nM. Also, the IC50 at cdk1/cyclinB was greater than 5000 nM. On cdk2/cyclinA, the IC50 was greater than 5000 nM. In addition, the IC50 on cdk2/cyclinE was greater than 5000 nM.

`CNC(=O)Nc1cc(C)c2cnc(Nc3ccc(N4CCNCC4)cc3)nc2n1` [Compound 64, 1-Methyl-3-[5-methyl-2-(4-piperazin-1-yl-phenylamino)-pyrido[2,3-d]pyrimidin-7-yl]-urea]: the melting point is 204 to 206 °C (dec.). Moreover, the IC50 at cdk4/cyclinD is greater than 5000 nM. Moreover, the IC50 on cdk1/cyclinB is greater than 5000 nM. The IC50 on cdk2/cyclinA is greater than 5000 nM. In addition, on cdk2/cyclinE, the IC50 is greater than 5000 nM.

Take `CC(=O)N1CCN(c2ccc(Nc3ncc4ccc(NC(=O)NCCCN5CCOCC5)nc4n3)cc2)CC1` [Compound 103, 1-{2-[4-(4-Acetyl-piperazin-1-yl)-phenylamino]-pyrido[2,3-d]pyrimidin-7-yl}-3-(3-morpholin-4-yl-propyl)-urea]: the melting point is 221 to 225 °C (dec.). Besides, the IC50 at cdk4/cyclinD is greater than 5000 nM. The IC50 at cdk1/cyclinB was greater than 5000 nM. For the same molecule, on cdk2/cyclinA, the IC50 was greater than 5000 nM. In addition, on cdk2/cyclinE, the IC50 is greater than 5000 nM.

Take `CC(C)C[C@@H](CO)NC(=O)Nc1ccc2cnc(Nc3ccc(N4CCNCC4)cc3)nc2n1` [Compound 83, 1-((S)-1-Hydroxymethyl-3-methyl-butyl)-3-[2-(4-piperazin-1-yl-phenylamino)-pyrido[2,3-d]pyrimidin-7-yl]-urea]: the melting point was 185 °C (dec.). Also, on cdk4/cyclinD, the IC50 is 55 nM. Also, the IC50 on cdk1/cyclinB amounted to 399 nM. The IC50 on cdk2/cyclinA was found to be 305 nM. For the same molecule, the IC50 at cdk2/cyclinE was found to be 315 nM.

For the molecule `CC(C)(C)NC(=O)Nc1ccc2cnc(Nc3ccc(N4CCN(C(=O)OC(C)(C)C)CC4)cc3)nc2n1` [Compound 79, 4-{4-[7-(3-tert-Butyl-ureido)-pyrido[2,3-d]pyrimidin-2-ylamino]-phenyl}-piperazine-1-carboxylic acid tert-butyl ester], the melting point is 225 °C (dec.). Also, on cdk4/cyclinD, the IC50 was greater than 5000 nM. In addition, the IC50 at cdk1/cyclinB was greater than 5000 nM. For the same molecule, the IC50 at cdk2/cyclinA was 1070 nM. The IC50 at cdk2/cyclinE was greater than 5000 nM.

Turning to `C[C@@H]1CN(c2ccc(Nc3ncc4ccc(NC(=O)NC5CCCCC5)nc4n3)cc2)C[C@H](C)N1` [Compound 50, 1-Cyclohexyl-3-{2-[4-(cis-3,5-dimethyl-piperazin-1-yl)-phenylamino]-pyrido[2,3-d]pyrimidin-7-yl}-urea], the melting point was 228 °C (dec.). Besides, the IC50 on cdk4/cyclinD is 7 nM. For the same molecule, on cdk1/cyclinB, the IC50 amounted to 69 nM. The IC50 on cdk2/cyclinA came out at 22 nM. The IC50 on cdk2/cyclinE was 35 nM.

On to `CN(C)CCNC(=O)Nc1ccc2cnc(Nc3ccc(F)cc3)nc2n1` [Compound 99, 1-(2-Dimethylamino-ethyl)-3-[2-(4-fluoro-phenylamino)-pyrido[2,3-d]pyrimidin-7-yl]-urea], for which the melting point lay in the range of 251 to 255 °C. Also, the IC50 at cdk4/cyclinD was greater than 5000 nM. The IC50 at cdk1/cyclinB is 1810 nM. At cdk2/cyclinA, the IC50 was determined as 1010 nM. Besides, the IC50 at cdk2/cyclinE is 410 nM.

Turning to `C[C@@H]1CN(c2ccc(Nc3ncc4cc(F)c(NC(=O)NC5CCCCC5)nc4n3)cc2)C[C@H](C)N1` [Compound 52, 1-Cyclohexyl-3-{2-[4-(cis-3,5-dimethyl-piperazin-1-yl)-phenylamino]-6-fluoro-pyrido[2,3-d]pyrimidin-7-yl}-urea], the melting point is 227 to 229 °C. For the same molecule, at cdk4/cyclinD, the IC50 turned out to be 27 nM. For the same molecule, the IC50 on cdk1/cyclinB is 472 nM. Also, the IC50 on cdk2/cyclinA came to 213 nM. At cdk2/cyclinE, the IC50 came out at 126 nM.

Consider `CCCN(CCC)C(=O)Nc1ccc2cnc(Nc3ccc(N4CCNCC4)cc3)nc2n1` [Compound 86, 3-[2-(4-Piperazin-1-yl-phenylamino)-pyrido[2,3-d]pyrimidin-7-yl]-1,1-dipropyl urea], for which the melting point is 190 °C (dec.). In addition, the IC50 on cdk4/cyclinD is greater than 5000 nM. In addition, the IC50 on cdk1/cyclinB is greater than 5000 nM. Further, the IC50 at cdk2/cyclinA was greater than 5000 nM. Besides, the IC50 at cdk2/cyclinE was greater than 5000 nM.

`CC(=O)N1CCN(c2ccc(Nc3ncc4ccc(NC(=O)NC(C)(C)C)nc4n3)cc2)CC1` [Compound 5, 1-{2-[4-(4-Acetyl-piperazin-1-yl)-phenylamino]-pyrido[2,3-d]pyrimidin-7-yl}-3-tert-butyl-urea]: the melting point is 206 to 208 °C (dec.). For the same molecule, the IC50 at cdk4/cyclinD turned out to be 37 nM. For the same molecule, at cdk1/cyclinB, the IC50 was 463 nM. Also, the IC50 at cdk2/cyclinA turned out to be 130 nM. At cdk2/cyclinE, the IC50 is 130 nM.

Turning to `O=C(Nc1ccc2cnc(Nc3ccc(N4CCNCC4)cc3)nc2n1)N1CCOCC1` [Compound 85, Morpholine-4-carboxylic acid [2-(4-piperazin-1-yl-phenylamino)-pyrido[2,3-d]pyrimidin-7-yl]-amide], the melting point was 190 °C (dec.). In addition, the IC50 at cdk4/cyclinD was greater than 5000 nM. Moreover, the IC50 on cdk1/cyclinB is greater than 5000 nM. The IC50 on cdk2/cyclinA was greater than 5000 nM. Besides, the IC50 at cdk2/cyclinE was greater than 5000 nM.
